The test system of this assay is SCTWT–heparin interaction. Kind of assay: 2D 1H-15N HSQC CSP: displacement of SCTWT from dp14 heparin. Type of assay: binding, human. Particulars: 0.2 mM SCTWT, 0.05 mM dp14 heparin, 4 mM CSIC02, pH 4.5. On the procedure:
NMR competition experiments involved the acquisition of 1D-^1H WaterLOGSY or spin-lock filtered NMR spectra. Thus, FS2 peptide is displaced from heparin agarose resin by CSIC02 (1:1 peptoid/FS2, both 1 mM), but not by CSIC03 (Figure S15). […] We reasoned that if CSIC02 was able to interact with GAG and displace FS2/FS3 basic peptides, it may also interfere with SCTWT–heparin interaction. To investigate if CSIC02 could displace SCTWT from heparin dp14 and to define the SCTWT residues affected, 2D NMR ^1H-^15N HSQC CSP experiments were used. Figure 8a illustrates the chemical shift effects of CSIC02 addition to a sample of SCTWT containing dp14 heparin. […] In Figure 8b, we display the chemical shift perturbation of SCTWT NMR spectra in the presence of dp14 and CSIC02. Thus, as the two CSP plots in Figure 4b and Figure 8b were calculated using as reference SCTWT alone in solution, we can compare them directly. […]
Figure 8 (a) Overlay of [^1H-^15N]-HSQC spectra of 0.2 mM Sema3A C-terminal region (orange) highlighting the changes of 0.05 mM (or 0.35 mM in disaccharide units) dp14 heparin oligosaccharide binding in the absence (purple) and the presence (turquoise) of 4 mM CSIC02. […] The absolute values of the chemical shift differences between the presence and absence of dp14 are plotted in ppm and calculated comparing with the chemical shifts of the protein alone. […]

For the molecule `CCN(CC)CCN(CC(=O)N(CCN1CCCC1)CC(=O)N(CCC1CCCN1C)CC(N)=O)C(=O)OCc1ccccc1` (stereo not shown) [CSIC02], the “effect on dp14 heparin-induced chemical shift perturbations of SCTWT” value was “modest decrease in dp14-induced perturbations”.

The record behind these values is publication PMC8465649, “Semaphorin 3A—Glycosaminoglycans Interaction as Therapeutic Target for Axonal Regeneration” (Pharmaceuticals, 2021).
